From the RepoRT retention time repository (doi:10.1016/j.chroma.2015.11.014)

Assay: RP, Agilent ZORBAX Eclipse Plus C18, 150 × 2.1 mm, 3.5 µm, 40 °C, 0.3 mL/min, estimated dead time 1.1 min; A: water + 0.1% formic acid; B: acetonitrile + 0.1% formic acid; gradient (min/%B) 0/2 1/2 2/20 16.5/98 22/98
Details: stereoisomer not certain

| Compound | LC retention time [min] |
| --- | --- |
| CCCCCCCCCCCCCC[N+](C)(C)C | 11.5 |
| CCCCCCOC(=O)c1ccccc1C(=O)OCCCCCC | 18.1 |
| CN1C(C)(C)CC(OC(=O)CCCCCCCCC(=O)OC2CC(C)(C)N(C)C(C)(C)C2)CC1(C)C | 6.48 |
| c1ccc([P+](CCC2OCCCO2)(c2ccccc2)c2ccccc2)cc1 | 7.98 |
| O=S(=O)([O-])CCCC[P+](c1ccccc1)(c1ccccc1)c1ccccc1 | 7.14 |
| O=P(c1ccccc1)(c1ccccc1)c1ccccc1 | 10.5 |
| CC1(C)CCCC(C)(C)N1 | 4.82 |
| CC12CCC3c4ccc(OCc5ccccc5)cc4CCC3C1CC(O)C2O (configuration not stated) | 13.3 |
| CN1CCC23CCCCC2C1Cc1ccc(O)cc13 (configuration not stated) | 5.97 |
| O=P(Oc1ccccc1)(Oc1ccccc1)Oc1ccccc1 | 14.1 |
| CC(C)COP(=O)(OCC(C)C)OCC(C)C | 14 |
| CCOC(=O)CC(SP(=S)(OC)OC)C(=O)OCC (configuration not stated) | 12.9 |
| O=C1CC2(CCCCC2)CN1 | 7.59 |
| CCCCCCCC[P+](CCCCCCCC)(CCCCCCCC)CCCCCCCC | 16.4 |
| O=S(=O)(O)NC1CCCCC1 | 5.07 |
| CNC(=O)Oc1cccc2ccccc12 | 10.1 |
| CCC(C)C(N)C(=O)O (configuration not stated) | 2.36 |
| CCCCCCCCCCC(C(=O)OCC)[N+](C)(C)Cc1ccccc1 (configuration not stated) | 11.7 |
| CN(C)c1ccc(C(=C2C=CC(N(C)C)C=C2)c2ccccc2)cc1 (configuration not stated) | 9.29 |
| CNCC(c1ccc(OC)cc1)C1(O)CCCCC1 (configuration not stated) | 6.44 |

| Compound | LC retention time [min] |
| --- | --- |
| CCCCCCCCCC(=O)N(C)C | 13.6 |
| Nc1ccc(C(=O)O)c(O)c1 | 5.48 |
| C[N+](C)(C)c1ccccc1 | 2.83 |
| O=P(O)(O)c1ccccc1 | 3.09 |
| C#CC1(O)CCC2C3CCC4=C(CCC(=O)C4)C3CCC21C (configuration not stated) | 11.1 |
| c1ccc(P(=N[P+](c2ccccc2)(c2ccccc2)c2ccccc2)(c2ccccc2)c2ccccc2)cc1 | 12.3 |
| CCOCCOC(=O)Nc1ccc(C)cc1 | 10.8 |
| O=C(c1ccccc1)c1ccc(O)c(O)c1O | 9.4 |
| CC(C)(c1ccc(OP(=O)(Oc2ccccc2)Oc2ccccc2)cc1)c1ccc(OP(=O)(Oc2ccccc2)Oc2ccccc2)cc1 | 17.7 |
| CC(C)c1ccc(OP(=O)(Oc2ccc(C(C)C)cc2)Oc2ccc(C(C)C)cc2)cc1 | 18.9 |
| CC12CCC3c4ccc(O)cc4CCC3C1CCC2O (configuration not stated) | 10.4 |
| CCC(C)C(=O)OC1CC(O)C=C2C=CC(C)C(CCC(O)CC(O)CC(=O)O)C21 (configuration not stated) | 8.64 |
| CCCCCCCCCCCCCC[N+](C)(C)Cc1ccccc1 | 12.8 |
| c1ccc(CC2=NCCN2)cc1 | 4.62 |
| CCCCCCCCn1sccc1=O | 11.9 |
| C[N+](C)(CCOc1ccccc1)Cc1ccccc1 | 7.14 |
| C#CC1(O)CCC2C3CCc4cc(OC)ccc4C3CCC21C (configuration not stated) | 14.5 |
| COC(=O)Nc1ccccc1 | 8.47 |
| C[N+](C)(Cc1ccccc1)Cc1ccccc1 | 6.13 |
| CCCCCCCCN | 6.9 |

| Compound | LC retention time [min] |
| --- | --- |
| CN(C)C(=N)N=C(N)N | 1.52 |
| COC(=O)C[P+](c1ccccc1)(c1ccccc1)c1ccccc1 | 7.72 |
| CCC1OC(=O)C(C)C(OC2CC(C)(OC)C(O)C(C)O2)C(C)C(OC2OC(C)CC(N(C)C)C2O)C(C)(OC)CC(C)C(=O)C(C)C(O)C1(C)O (configuration not stated) | 8.86 |
| CCCCCCCCOS(=O)(=O)O | 9.59 |
| CNCC(c1ccc(O)cc1)C1(O)CCCCC1 (configuration not stated) | 5.66 |
| CC(C)CC(C)(O)C#CC(C)(O)CC(C)C (configuration not stated) | 12.4 |
| CCC1(c2cccc(O)c2)CCCCN(C)C1 (configuration not stated) | 5.64 |
| COC1C(O)CC(=O)OC(C)CC=CC=CC(OC2CCC(N(C)C)C(C)O2)C(C)CC(CC=O)C1OC1OC(C)C(OC2CC(C)(O)C(O)C(C)O2)C(N(C)C)C1O (configuration not stated) | 5.77 |
| COc1ccc(C(CN(C)C)C2(O)CCCCC2)cc1 (configuration not stated) | 6.63 |
| CN(C)CCC=C1c2ccccc2CCc2ccccc21 | 8.71 |
| CCOP(=O)(OCC)OCC | 7.41 |
| CC(C)(C)c1cc([N+](=O)[O-])cc([N+](=O)[O-])c1O | 13.9 |
| CCCC[N+](CCCC)(CCCC)Cc1ccccc1 | 9.13 |
| N=C(N)c1ccc(OCCCCCCOc2ccc(C(=N)N)cc2)cc1 | 5.92 |
| O=[N+]([O-])c1ccc(O)c([N+](=O)[O-])c1 | 9.21 |
| COc1ccc2c3c1OC1C(=O)C=CC4C(C2)N(C)CCC314 (configuration not stated) | 5.06 |
| CC1(C)CC(O)CC(C)(C)N1O | 5.7 |
| COCP(=O)(c1ccccc1)c1ccccc1 | 8.67 |

The remaining lines, values ahead:

| LC retention time [min] | Compound |
| --- | --- |
| 17.6 | C=C(c1ccc(C(=O)O)cc1)c1cc2c(cc1C)C(C)(C)CCC2(C)C |
| 10 | CCOc1nc2cccc(C(=O)O)c2n1Cc1ccc(-c2ccccc2-c2nn[nH]n2)cc1 |
| 5.7 | CCC(C(=O)O)N1CCCC1=O (configuration not stated) |
| 5.62 | Cc1c(NC=O)c(=O)n(-c2ccccc2)n1C |
| 5.2 | c1ccc2[nH]c(-c3cscn3)nc2c1 |
| 4.73 | CCCCN1C=CN(C)C1C (configuration not stated) |
| 7.37 | COc1ccccc1NC(C)=O |
| 8.32 | NC(=O)N1c2ccccc2CC(=O)c2ccccc21 |
| 2.23 | Nc1nc2c(ncn2COC(CO)CO)c(=O)[nH]1 |
| 10.2 | CC(C)C(=O)c1ccc(C(C)C(=O)O)cc1 (configuration not stated) |
| 4.93 | CN1C=CN(Cc2ccccc2)C1 |
| 9.18 | O=C1NC(=O)C(c2ccccc2)(c2ccccc2)N1 |
| 9.95 | COC(=O)Nc1nc2ccc(Sc3ccccc3)cc2[nH]1 |
| 11.1 | CC12CCC3c4ccc(OS(=O)(=O)O)cc4CCC3C1CCC2=O (configuration not stated) |
| 4.09 | Nc1nc2c(ncn2C2CC(O)C(CO)O2)c(=O)[nH]1 (configuration not stated) |
| 14.7 | O=C1c2ccccc2C(=O)C1c1nc2ccccc2cc1O |
| 6.35 | CCC1(c2ccccc2)C(=O)NCNC1=O |
| 7.74 | O=c1c(-c2ccc(O)cc2)coc2cc(O)ccc12 |
| 10.9 | CC(C(=O)O)c1cccc(C(=O)c2ccccc2)c1 (configuration not stated) |
| 4.78 | Cc1c(N)c(=O)n(-c2ccccc2)n1C |

| LC retention time [min] | Compound |
| --- | --- |
| 2.46 | Nc1ccn(C2CSC(C(=O)O)O2)c(=O)n1 (configuration not stated) |
| 2.6 | Nc1nc2c(ncn2CCC(CO)CO)c(=O)[nH]1 |
| 8.34 | CCNC(=O)c1cccc(C)c1 |
| 10.4 | CC1(C)CCCC(C)(C)N1O |
| 10.5 | COc1ccc2c(c1)CCC1C2CCC2(C)C(=O)CCC12 (configuration not stated) |
| 6.83 | Cc1c(O)c(=O)n(-c2ccccc2)n1C |
| 9.98 | CC12CCC3c4cc(O)c(O)cc4CCC3C1CCC2=O (configuration not stated) |
| 5.59 | CC(=O)Nc1ccc(C(=O)O)cc1 |
| 5.73 | CCCCCCN1C=CN(C)C1 |
| 7.56 | Cc1noc(NS(=O)(=O)c2ccc(N)cc2)c1C |
| 8.4 | CC12CCC(=O)C=C1CCC1C2C(=O)CC2(C)C1CCC2(O)C(=O)CO (configuration not stated) |
| 7.92 | NC(=O)N1c2ccccc2C=Cc2ccc(O)cc21 |
| 6.77 | Cc1cc(NS(=O)(=O)c2ccc(NO)cc2)no1 |
| 5.75 | COc1ccc2nc(SCc3ncc(C(=O)O)c(OC)c3C)[nH]c2c1 |
| 9.42 | COc1cc(-c2oc3cc(O)cc(O)c3c(=O)c2O)ccc1O |
| 2.92 | Nc1nc2c(ncn2COCC(=O)O)c(=O)[nH]1 |
| 7.28 | CCCc1nn(C)c2c(=O)[nH]c(-c3cc(S(=O)(=O)N4CCN(C)CC4)ccc3OCC)nc12 |
| 2.34 | Cn1c(N)nc2nc[nH]c2c1=O |
| 10.9 | COC(=O)C1=C(C)NC(C)=C(C(=O)OC)C1c1ccccc1[N+](=O)[O-] |
| 7.48 | NC(=O)N1c2ccccc2C=Cc2cc(O)ccc21 |

| LC retention time [min] | Compound |
| --- | --- |
| 6.22 | Oc1ccccc1-c1nc2ccccc2[nH]1 |
| 4.62 | CC(C)NCC(O)COc1ccc(CC(N)=O)cc1 (configuration not stated) |
| 6.51 | COc1ccc(NC(C)=O)cc1 |
| 7.3 | Cc1ccnc2c1NC(=O)c1cccnc1N2C1CC1 |
| 4.78 | COc1cc(Cc2cnc(N)nc2N)cc(OC)c1O |
| 4.86 | CCN(CC)CCNC(=O)c1cc(S(C)(=O)=O)ccc1OC |
| 5.16 | CC(N)c1nc2ccccc2s1 (configuration not stated) |
| 2.36 | Cn1cnc2nc[nH]c2c1=N |
| 10.6 | CCOc1ccc2ccccc2c1C(=O)NC1C(=O)N2C1SC(C)(C)C2C(=O)O (configuration not stated) |
| 4.25 | Cc1ncsc1CCO |
| 6.23 | O=c1[nH]sc2ccccc12 |
| 4.61 | CCOC(=O)c1cnc(N)nc1N |
| 9.97 | CCC(CC)COC(=O)C(C)NP(=O)(OCC1OC(C#N)(c2ccc3c(N)ncnn23)C(O)C1O)Oc1ccccc1 (configuration not stated) |
| 5.13 | CC(C)(C)NCC(O)COc1cccc2c1CC(O)C(O)C2 (configuration not stated) |
| 2.08 | O=c1[nH]c(=O)c2[nH]c(=O)[nH]c2[nH]1 |
| 10.3 | CCOc1cc(CC(=O)NC(CC(C)C)c2ccccc2N2CCCCC2)ccc1C(=O)O (configuration not stated) |
| 7.43 | Cc1cc(C(C)(C)C)c(O)c(C)c1CC1=NCCN1 |
| 5.24 | Cn1cnc2c1c(=O)[nH]c(=O)n2C |
| 10 | COC(=O)c1ccc(CNS(C)(=O)=O)cc1S(=O)(=O)NC(=O)Nc1nc(OC)cc(OC)n1 |
